One experiment relates to Zoogloea ramigera ABI 1. As to the kind of experiment: Induction of N-acetyldehydroleucine acylase in agitated cultures, changing of the inductor. As to conditions: inductor 3 g/l; for Acylase activity after 60 hours of incubation as a function of the inductor: agitated culture, pH 7. Format: cell-based. The method, then: All raw extracts were tested at least with N-acetyldehydroleucine and N-acetyldehydroisoleucine but, in most cases, also with N-acetyldehydrovaline. […] The enzymatic reaction was stopped in the batches incubated at 30° C. by adding 0.25 ml color reagent (1 g/l 2,4-dinitrophenyl hydrazine in 2 N HCl). After further incubation at 30° C. for 10 minutes with N-acetyldehydroleucine as substrate or 25 minutes with the isoleucine or valine derivative, 1.5 ml 2,5 N NaOH was added.
The keto acid released by the enzymatic hydrolysis forms, together with the 2,4-dinitrophenyl hydrazine, a Schiff's base colored red in the alkaline whose absorption was measured in a spectral photometer at 442 nm against a batch without N-acetyldehydroamino acid (=enzyme blank). A blank reading was deducted from these extinction values which blank reading is obtained if the extinction value of a batch only with buffer (=buffer blank) is deducted from that of a batch with buffer and N-acetyldehydroamino acid but without raw extract (=substrate blank). The concentration of the product produced was determined with a calibrated reference for the corresponding keto acid. The enzyme activity is indicated in international units. One unit (U) corresponds to an amount of 1 μmole released keto acid per minute.
Different substances were added in a concentration of 3 g/l as inductors into agitated cultures with a medium of mineral salt solution (cf. Example 1) with 0.5 g/l yeast extract and 0.5 g/l peptone at pH 7. The technology for agitated cultures is described in Example 1 a).

Experiment [1] relates to N-acetyldehydroleucine acylase. As to the kind of experiment: Hydrolysis of other compounds by the acylase (TLC / amino acid analyzer). Format: biochemical, Zoogloea ramigera. As to the method:
A qualitative check was performed for 81 compounds to see whether they are accepted as substrate by the acylase. The test batches contained:
After 16 and 40 hours incubation at 25° C., specimens were taken from the batches, most of which specimens were analyzed in comparison to substrate standards by means of thin-layer chromatography (70% (v/v) ethanol as mobile solvent). The detection took place with ninhydrin spray reagent. A few specimens were tested in addition or alternatively with the amino acid analyzer.
The amino acids produced from the amino acid amides by means of the action of acylase were detected quantitatively with the amino acid analyzer.

The subject of experiment [2] is N-acetyldehydroleucine acylase. As to the kind of experiment: Acylase activity versus concentration of N-acetyldehydroamino acids (kinetic data). The class given is biochemical, Zoogloea ramigera. As to the method:
The activity of the acylase was determined under standard conditions (cf. Example 8a)) with various N-acetyldehydroamino acids in concentrations of 0.1 to 300 mM. A second series of measurements with N-acetyldehydroleucinein the above-indicated concentration range was placed in 0.1 M tris/phosphoric acid buffer.
Reaction conditions: 0.1 M glycine, pH 9, 30° C.
Adaptation to the equation v = Vmax. · S/(KM + S +

The test system of experiment [3] is ADL acylase. As to the kind of experiment: Stability of the acylase in the presence of different anions. Format: physicochemical, Zoogloea ramigera. The settings on record: sodium salt 0.5 M in 50 mM glycine pH 11, 20° to 25° C., raw extract; 500000 µM. The method, then:
The influence of different anions on the stability of ADL acylase was investigated. Raw extract which had been compounded with glycerin to 43.5% (w/v) was diluted 1 : 10 with 0.5 molar solutions of various sodium salts in 50 mM glycine (pH 11) and stored at room temperature (20° to 25° C.). Specimens were taken from time-to-time and their enzymatic activity measured under standard conditions, as described in Example 8a).

Experiment [4] concerns N-acetyldehydroleucine acylase. As to the kind of experiment: Hydrolysis of hydantoins by the acylase. Format: biochemical, Zoogloea ramigera. As to conditions: 25 mM substrate, 1 U/ml acylase, tris/phosphoric acid pH 9, 11.5 hours at 30° C.; ADL = 100%. As to the method:
The test batches for the hydrolysis of hydantoins had the following composition:
25 mM substrate or buffer
50 mM tris/phosphoric acid buffer
Isopropylhydantoin, hydantoic acid and dihydrouracil were used as substrates. After 11.5 hours at 30° C., 175 μl 12% (w/v) trichloroacetic acid and 25 μl analytical reagent (10 % (w/v) […] in 6 N HCl) were added, precipitated protein centrifuged off in an Eppendorf table centrifuge and the absorption in the supernatants measured at 450 nm.

The subject of experiment [5] is ADL acylase. As to the kind of experiment: Influence of glycine on the reaction rate. Format: biochemical, Zoogloea ramigera. As to the method: The reaction of glycine in 0 to 1.2 molar concentration dissolved in 0.1 M tris/HCl buffer was determined under standard conditions (example 8a).

Values joined by “and” are separate entries in the source; they are usually repeats but may differ in a detail not shown here. Equal values may be shown once.

In the case of `CC(=O)NC(Cc1ccccc1)C(=O)O` (racemic) [Ac-D,L-phenylalanine], in the experiment on Zoogloea ramigera ABI 1, the “Acylase activity after 60 hours of incubation as a function of the inductor” value (from here on “Acylase activity after 60 hours”) amounted to 0.031 U/mg.

As for `CC(=O)NC(Cc1c[nH]c2ccccc12)C(=O)O` (racemic) [Ac-D,L-tryptophan], in the experiment on Zoogloea ramigera ABI 1, the “Acylase activity after 60 hours” value amounted to 0.018 U/mg.

`CC(=O)NC(Cc1ccc(O)cc1)C(=O)O` (racemic) [Ac-D,L-tyrosine]: the “Acylase activity after 60 hours” value with Zoogloea ramigera ABI 1 was 0.011 U/mg.

Turning to `CC(=O)NC(C(=O)O)C(C)C` (racemic) [Ac-D,L-valine], the “Acylase activity after 60 hours” value in the experiment on Zoogloea ramigera ABI 1 came out at 0.031 U/mg.

For the compound `CC(=O)NC(=Cc1ccccc1)C(=O)O` [ACA, 2-acetylamino cinnamic acid], in experiment [1], the “Substrate specificity: hydrolysis by the acylase” value (“Substrate specificity: hydrolysis” for short) is on record as “hydrolyzes”. In experiment [2] (glycine, 0.1 M, pH 9, 30° C.), the “% Vmax” value turned out to be 46% and the Km is 2.62 mM. For the same compound, in the experiment with Zoogloea ramigera ABI 1, the “Induction capacity” value is “only slightly active” and the “Acylase activity after 60 hours” value came to 0.016 U/mg.

With `C=C(NC(C)=O)C(=O)O` [ADA, 2-acetylamino acrylic acid], the “Substrate specificity: hydrolysis” value in experiment [1] was “hydrolyzes”. For the same compound, in experiment [2] (glycine, 0.1 M, pH 9, 30° C.), the “% Vmax” value is listed as 90% and the Km is 6.68 mM.

Consider `CCC(C)=C(NC(C)=O)C(=O)O` [ADI, N-acetyl-2,3-didehydroisoleucine], for which, in experiment [1], the “Substrate specificity: hydrolysis” value is “hydrolyzes”. Moreover, in experiment [2] (glycine, 0.1 M, pH 9, 30° C.), the “% Vmax” value turned out to be 14% and the Km was determined as 5.77 mM. Further, in the experiment with Zoogloea ramigera ABI 1, the “Acylase activity after 60 hours” value was 0.172 U/mg.

For the compound `CC(=O)NC(=CC(C)C)C(=O)O` [ADL, N-acetyl-2,3-didehydroleucine], the “rel. activity (%)” value in experiment [1] (50 mM test substrate, 0.1 M tris/HCl pH 9, 25° C., hydrolysis rate with N-acetyldehydroleucine = 100%) is listed as 100.0%. Besides, the “% Vmax” value is on record as 100% in experiment [2] (glycine, 0.1 M, pH 9, 30° C.) and 62% in experiment [2] (tris-phosphoric acid 0.1 M). The Michaelis-Menten constant (Km) in experiment [2] (glycine, 0.1 M, pH 9, 30° C.) is 4.5 mM and 4.53 mM; in experiment [2] (glycine, 0.1 M, pH 9, 30° C., listed as N-acetyl-2,3-didehydroleucine), 4.5 mM; in experiment [2] (tris-phosphoric acid 0.1 M), 7.01 mM. For the same compound, in the experiment with Zoogloea ramigera ABI 1, the “Induction capacity” value was “highest induction capacity”. Moreover, the “Acylase activity after 60 hours” value in the experiment on Zoogloea ramigera ABI 1 is recorded as 0.222 U/mg.

On to `CC(=O)NC(C(=O)O)=C(C)C` [ADV, N-acetyl-2,3-didehydrovaline], for which the “Substrate specificity: hydrolysis” value in experiment [1] was “hydrolyzes”. Further, in experiment [2] (glycine, 0.1 M, pH 9, 30° C.), the “% Vmax” value was found to be 23% and the Michaelis-Menten constant (Km) is 20.9 mM. Besides, the “Acylase activity after 60 hours” value with Zoogloea ramigera ABI 1 is recorded as 0.121 U/mg.

`CC[C@H](C)[C@H](NC(C)=O)C(=O)O` [Ac-L-isoleucine]: in the experiment on Zoogloea ramigera ABI 1, the “Acylase activity after 60 hours” value stood at 0.039 U/mg.

As to `CC(=O)N[C@@H](CC(C)C)C(=O)O` [Ac-L-leucine, N-acetyl-L-leucine], the “Acylase activity after 60 hours” value with Zoogloea ramigera ABI 1 is 0.018 U/mg.

Take `CC(=O)O` [Acetate]: in the experiment on ADL acylase [3], the “% Residual activity after 3 days” value is reported as 86%, the “% Residual activity after 6 days” value amounted to 81% and the “% Residual activity after 21 days” value stood at 6%.

As to `Cl` [Chloride], in the experiment with ADL acylase [3], the “% Residual activity after 3 days” value turned out to be 35%, the “% Residual activity after 6 days” value is on record as 0% and the “% Residual activity after 21 days” value is 0%.

Regarding `O=C1CCNC(=O)N1` [Dihydrouracil], the “rel. activity (%)” value in experiment [4] turned out to be 0%.

With `O=CO` [Formate], in the experiment on ADL acylase [3], the “% Residual activity after 3 days” value is listed as 76%, the “% Residual activity after 6 days” value was 63% and the “% Residual activity after 21 days” value is given as 2%.

Turning to `NCC(=O)O` [Glycine, glycine], the “Influence of activators on substrate splitting” value in the experiment on ADL acylase [5] was “accelerates the substrate splitting as a function of the concentration”. The EC50 on ADL acylase [5] (0.1 M tris/HCl buffer, calculation according to Ingami and Murachi, read-out: Glycine concentration necessary for one-half the maximum reaction acceleration) is 90 mM.

Take `CC(C)C1NC(=O)NC1=O` (centres unmarked) [Isopropy hydantoin]: the “rel. activity (%)” value in experiment [4] was found to be 0%.

Consider `O=S(=O)(O)O` [Sulfate], for which, in the experiment with ADL acylase [3], the “% Residual activity after 3 days” value is 89%, the “% Residual activity after 6 days” value was found to be 94% and the “% Residual activity after 21 days” value came out at 15%.

For the compound `NC(=O)[C@@H](N)Cc1c[nH]c2ccccc12` [tryptophane amide], the “Substrate specificity: hydrolysis” value in experiment [1] is recorded as “split with a reaction rate on the order like that achieved with N-acetyldehydroamino acids”.

Regarding Phosphate, in the experiment with ADL acylase [3], the “% Residual activity after 3 days” value was 96%, the “% Residual activity after 6 days” value was 105% and the “% Residual activity after 21 days” value worked out at 27%.

The values above are taken from patent US5134073A, “Microbiologically produced N-acetyl-2,3-didehydroleucine acylase” (Degussa Aktiengesellschaft, priority 1989, dated 1992).
